Laboratory results: patent publication US5376681A, “Aminocoumaran derivatives, their production and use” (Takeda Chemical Industries, Ltd., priority 1990, dated 1994)

System: behavior induced by spinal intrathecal injection of FeCl2 in mice
Experiment: Effect of drugs on the change of the behavior induced by spinal intrathecal injection of FeCl2 in mice (Experiment 1)
Format: in vivo, mice (male Slc: ICR)
Details: oral, 30 minutes prior to ferrous chloride injection; for % inhibition: 100 mg/kg, calculated from mean scores vs saline; for Mean Score Administration of Test Compound of 100 mg/kg: behavioral score 0 (normal) to 5 (death), 10 mice per group
Procedure: Effect of drugs on the change of the behavior induced by spinal intrathecal injection of FeCl2 in mice
Male Slc: ICR mice (5 weeks) (10 mice per group) were used. Saline (5 μl/mouse) containing 50 mM FeCl2 was injected into the subarachnoid space between the 6th lumbar segment and the 1st sacral and scored as follows.
Percent inhibitions were calculated based on the scores evaluated above. The test compounds were orally administered 30 minutes prior no ferrous chloride injection. […]

For `Cc1c(C)c2c(c(C)c1N)CC(C)(C)O2` [Example 103, 5-Amino-2,2,4,6,7-pentamethyl-2,3-dihydrobenzofuran], the “% inhibition” value was 98.0% and the “Mean Score Administration of Test Compound of 100 mg/kg” value (“Mean Score Administration” for short) was 0.1.

`CCNc1c(C)c(C)c2c(c1C)CC(C)(CCc1ccc(F)cc1)O2` (stereo not shown) [Example 47, 5-Ethylamino-2-[2-(4-fluorophenyl)ethyl]-2,4,6,7-tetramethyl-2,3-dihydrobenzofuran] was tested, and the “% inhibition” value was 79.6% and the “Mean Score Administration” value was 1.0.

With `Cc1c(C)c2c(c(C)c1N)CC(C)(CCc1ccc(F)cc1)O2` (stereo not shown) [Example 85, 5-Amino-2,4,6,7-tetramethyl-2-[2-(4-fluorophenyl)ethyl]-2,3-dihydrobenzofuran] the “% inhibition” value was 87.0% and the “Mean Score Administration” value was 0.6.

In the case of `Cc1c(C)c2c(c(C)c1N)CC(C)(CCc1ccccc1)O2` (stereo not shown) [Example 84, 5-Amino-2,4,6,7-tetramethyl-2-(2-phenylethyl)-2,3-dihydrobenzofuran], the “% inhibition” value is reported as 89.1% and the “Mean Score Administration” value is reported as 0.5.

With `Cc1c(C)c2c(c(C)c1N)CC(C)(Cc1ccccc1)O2` (stereo not shown) [Example 1, 5-Amino-2-benzyl-2,4,6,7-tetramethyl-2,3-dihydrobenzofuran] the “% inhibition” value was 73.9% and the “Mean Score Administration” value was 1.2.
